The assay deals with Carbonic anhydrase 9 (Homo sapiens, UniProt Q16790). The assay can be described thus: Binding affinity to human carbonic anhydrase 9 by stopped flow CO2 hydration assay.

Molecules are shown by their SMILES.

The record followed here is ChEMBL document CHEMBL4152310, “Design and synthesis of novel benzenesulfonamide containing 1,2,3-triazoles as potent human carbonic anhydrase isoforms I, II, IV and IX inhibitors” (Eur J Med Chem, 2018).

As to `NS(=O)(=O)c1ccc(-n2cc(C(=O)c3ccc(Br)cc3)nn2)cc1`, the Ki – broadly, a dissociation constant, usually derived from enzyme kinetics or from competition with a known ligand – stood at 44.7 nM.

`COc1ccc(C(=O)c2nnn(-c3ccc(S(N)(=O)=O)cc3)c2C(F)(F)F)cc1` came in with a Ki of 141 nM.

On to `NS(=O)(=O)c1ccc(-n2nnc(C(=O)c3ccc4ccccc4c3)c2C(F)(F)F)cc1`, for which the affinity, expressed as Ki, was 248 nM.

`NS(=O)(=O)c1ccc(-n2cc(C(=O)c3ccc(F)cc3)nn2)cc1`: the Ki came to 47.8 nM.

Take `NS(=O)(=O)c1ccc(-n2nnc(C(=O)c3ccccc3)c2C(F)(F)F)cc1`: the affinity, expressed as Ki, was 39.8 nM.

In the case of `NS(=O)(=O)c1ccc(-n2nnc(C(=O)c3ccc(Cl)cc3)c2C(F)(F)F)cc1`, affinity was put at a Ki of 48.2 nM.

`NS(=O)(=O)c1ccc(-n2cc(C(=O)c3cccs3)nn2)cc1` showed a Ki of 362 nM.

With `Cc1ccc(C(=O)c2cn(-c3ccc(S(N)(=O)=O)cc3)nn2)cc1`, the affinity, expressed as Ki, was 324 nM.

For the molecule `NS(=O)(=O)c1ccc(-n2cc(C(=O)c3ccccc3)nn2)cc1`, the Ki stood at 136 nM.

`NS(=O)(=O)c1ccc(-n2cc(C(=O)c3ccc4ccccc4c3)nn2)cc1`: the affinity corresponds to a Ki of 127 nM.

Take `NS(=O)(=O)c1ccc(-n2nnc(C(=O)c3ccc(Br)cc3)c2C(F)(F)F)cc1`: the Ki came to 35.8 nM.

Turning to `NS(=O)(=O)c1ccc(-n2nnc(C(=O)c3ccco3)c2C(F)(F)F)cc1`, the affinity, expressed as Ki, was 190 nM.

In turn, `NS(=O)(=O)c1ccc(-n2nnc(C(=O)c3ccccn3)c2C(F)(F)F)cc1` registered a Ki of 156 nM. This Ki and that of the molecule before are within 1.5-fold of each other.

Turning to `NS(=O)(=O)c1ccc(-n2cc(C(=O)c3ccc(Cl)cc3)nn2)cc1`, the Ki is 27.3 nM.

`NS(=O)(=O)c1ccc(-n2cc(C(=O)c3ccco3)nn2)cc1`: affinity was put at a Ki of 217 nM. Against the preceding molecule, the Ki is about 7.9-fold higher.

With `Cc1ccc(C(=O)c2nnn(-c3ccc(S(N)(=O)=O)cc3)c2C(F)(F)F)cc1`, the Ki worked out at 144 nM. This Ki lies about 1.5-fold lower than the previous one.

`NS(=O)(=O)c1ccc(-n2nnc(C(=O)c3cccs3)c2C(F)(F)F)cc1` had a Ki of 45.4 nM. This Ki is about 3.2-fold lower than that of the molecule before.

The molecule `NS(=O)(=O)c1ccc(-n2cc(C(=O)c3ccccn3)nn2)cc1` yielded a Ki of 182 nM.

With `NS(=O)(=O)c1ccc(-n2nnc(C(=O)c3ccc(F)cc3)c2C(F)(F)F)cc1`, the Ki was 38.1 nM.

On to `COc1ccc(C(=O)c2cn(-c3ccc(S(N)(=O)=O)cc3)nn2)cc1`, for which the Ki is 145 nM. Against the preceding molecule, the Ki is about 3.8-fold higher.
